From a compilation of properties of binary mixtures (doi:10.1021/acs.jced.2c00096)

Assay: xn = mol fraction of the nth substance listed
Conditions: 100 kPa

CCCC[N+]1(C)CCCC1.O=S(=O)([O-])C(F)(F)F + O
Conditions | electrical conductivity, 313.15 K [S/m] | electrical conductivity, 318.15 K [S/m] | electrical conductivity, 323.15 K [S/m] | electrical conductivity, 328.15 K [S/m] | electrical conductivity, 333.15 K [S/m] | viscosity, 313.15 K [mPa·s] | viscosity, 318.15 K [mPa·s] | viscosity, 323.15 K [mPa·s] | viscosity, 328.15 K [mPa·s] | viscosity, 333.15 K [mPa·s]
x2 = 0.0597 | – | 0.52 | – | 0.713 | 0.83 | – | 56.7 | – | 39.32 | 33.27
x2 = 0.1203 | – | – | 0.686 | 0.796 | 0.918 | – | – | 40.38 | 34.03 | 28.94
x2 = 0.1956 | – | 0.68 | – | 0.921 | 1.05 | – | 39.82 | – | 28.34 | 24.27
x2 = 0.3197 | 0.76 | – | 1.03 | 1.17 | 1.33 | 33.61 | – | 23.95 | 20.52 | 17.75
x2 = 0.3766 | 0.866 | 1.01 | 1.16 | – | 1.48 | 28.63 | 24.15 | 20.59 | – | 15.39
x2 = 0.4836 | 1.11 | 1.28 | 1.47 | 1.67 | 1.88 | 20.81 | 17.69 | 15.18 | 13.15 | 11.49
x2 = 0.5819 | – | 1.63 | – | 2.12 | – | – | 13.03 | – | 9.79 | –
x2 = 0.6794 | 1.86 | 2.14 | – | 2.76 | 3.09 | 10.89 | 9.36 | – | 7.1 | 6.26
x2 = 0.7673 | 2.4 | 2.75 | 3.11 | 3.5 | 3.91 | 7.6 | 6.57 | 5.73 | 5.04 | 4.46
x2 = 0.8612 | 3.17 | 3.61 | 4.06 | 4.55 | 5.05 | 4.47 | 3.9 | 3.43 | 3.04 | 2.71
x2 = 0.95 | 3.56 | 4 | – | 4.93 | 5.42 | 1.91 | 1.7 | – | 1.37 | 1.24
